Key:
LNCaP cell xenografts = test: tissue distribution of ^177Lu-labeled compounds in mice bearing LNCaP xenografts; assay type: in vivo; conditions: for concentration in kidneys compared with tumor: 4 hours post administration; for concentration in LNCap tumor: 24 hours and 96 hours post administration compared with 4 hours; for clearance from the kidneys: over a period of 96 hours
Procedure: All animal studies were approved by the Institute for Animal Care and Use Committee in accordance with the guidelines set forth by the U.S. Public Health Service Policy on Humane Care and Use of Laboratory Animals. Mice were housed under standard conditions in approved facilities with 12 hour light/dark cycles and given food and water ad libitum. Male athymic NCr-nu/nu mice were purchased from Taconic. For inoculation in mice, LNCaP cells were resuspended at 10^7 cells/ml in a 1:1 mixture of cell culture medium:Matrigel (BD Biosciences). Each mouse was injected in the right flank with 0.25 ml of the cell suspension. Mice were used for tissue distribution studies when the tumors reached approximately 100-400 mm^3.
A quantitative analysis of the tissue distribution of ^177Lu-labeled compounds was performed in separate groups of male NCr-nu/nu mice bearing LNCaP cell xenografts. The compounds were administered via the tail vein as a bolus injection (approximately 10 μCi/mouse) in a constant volume of 0.05 mL. The animals (n=5/time point) were euthanized by asphyxiation with carbon dioxide at the indicated time points after injection. Tissues, for example, blood, heart, lungs, liver, spleen, kidneys, stomach, large and small intestines (with contents), testes, skeletal muscle, bone, brain, adipose, and tumor were dissected, excised, weighed wet, and counted in an automated γ-counter. Tissue time-radioactivity levels were expressed as percent injected dose per gram of tissue (% ID/g).

LNCaP xenografts = test: in vivo efficacy: inhibition of LNCaP tumor growth; design: species or system mice; conditions: 450 μCi per mouse, intravenous
Procedure: FIG. 5 illustrates the in vivo efficacy of an exemplary lutetium complex of the invention to inhibit the growth of LNCaP tumors in mice. Arrest of tumor growth was determined by administering 450 μCi of the lutetium complex of (2S)-2-(3-((1S)-1-caroxy-5-(11-(4-(4-(dimethylamino)-6-((4-((1,4,7,10-tetrakis(carboxymethyl)-1,4,7,10-tetraazacyclododecan-2-yl)methyl)phenyl)amino)-1,3,5-triazin-2-yl)piperazin-1-yl)undecanamido)pentyl)ureido)pentanedioic acid to each mouse in the study group. Mice in the control group were administered saline. Tumor volumes in the test and control group of mice were measured twice weekly.
All animal studies were approved by the Institute for Animal Care and Use Committee in accordance with the guidelines set forth by the U.S. Public Health Service Policy on Humane Care and Use of Laboratory Animals. Mice were housed under standard conditions in approved facilities with 12 hour light/dark cycles and given food and water ad libitum. Male athymic NCr-nu/nu mice were purchased from Taconic. […]
Mice bearing LNCaP xenografts having an average volume of ˜100-500 mm^3, were randomly assigned to a control group or a treatment group (n=10 mice per group). […] Tumor dimensions were measured twice weekly with digital calipers and tumor volumes were calculated using the formula ([…]Π×width^2×length)/6. […]

PSMA = target: T1, PSMA (Homo sapiens, UniProt Q04609); test: ^68Ga-PSMA PET/CT imaging of a subject having prostate cancer; assay type: in vivo
T1 construct: from tissue; host or cells: in vivo: prostate tissue, lymph node and bone lesions of a subject having prostate cancer
T1 sequence (Q04609 whole entry): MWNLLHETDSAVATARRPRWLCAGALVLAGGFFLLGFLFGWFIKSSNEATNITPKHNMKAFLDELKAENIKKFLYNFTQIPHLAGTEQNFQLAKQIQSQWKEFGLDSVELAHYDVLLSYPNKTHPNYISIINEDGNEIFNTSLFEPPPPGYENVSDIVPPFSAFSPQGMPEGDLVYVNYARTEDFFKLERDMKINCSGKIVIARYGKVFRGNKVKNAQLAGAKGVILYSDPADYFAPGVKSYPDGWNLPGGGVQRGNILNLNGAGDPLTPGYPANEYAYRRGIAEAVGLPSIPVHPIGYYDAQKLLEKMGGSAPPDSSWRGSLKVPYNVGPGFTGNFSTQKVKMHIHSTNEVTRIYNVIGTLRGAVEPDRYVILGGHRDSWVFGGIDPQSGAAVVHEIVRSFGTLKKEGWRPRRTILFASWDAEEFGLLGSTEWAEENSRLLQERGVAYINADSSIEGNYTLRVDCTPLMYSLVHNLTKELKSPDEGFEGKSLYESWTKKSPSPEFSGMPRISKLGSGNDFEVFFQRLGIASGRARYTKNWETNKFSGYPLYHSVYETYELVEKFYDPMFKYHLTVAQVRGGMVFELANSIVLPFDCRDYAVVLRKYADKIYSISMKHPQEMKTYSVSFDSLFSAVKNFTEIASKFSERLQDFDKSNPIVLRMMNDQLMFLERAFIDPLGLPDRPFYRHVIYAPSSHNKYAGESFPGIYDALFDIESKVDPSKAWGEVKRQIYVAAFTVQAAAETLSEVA
Procedure: According to another embodiment of the invention, radiometal complexes of Formula I and Formula II compounds were used for imaging prostate cancer and accompanying metastasis in a subject. Briefly, ^68Ga was complexed to (2S)-2-(3-((1S)-1-carboxy-5-(11-(4-(4-(dimethylamino)-6-((4-((1,4,7,10-tetrakis(carboxymethyl)-1,4,7,10-tetraazacyclododecan-2-yl)methyl)phenyl)amino)-1,3,5-triazin-2-yl)piperazin-1-yl)undecanamido)pentyl)ureido)pentanedioic acid and the resultant complex was administered to a subject having prostate cancer. The subject was then imaged at 1 hour and 3 hours post administration of the inventive ^68Ga complex using, for example, a ^68Ga-PSMA PET/CT scanner. […] Overall, this imaging study supports the use of radiometal complexes of the inventive compounds as suitable agents for radioimaging of cancers, such as prostate cancer.

[1] = ^177Lu complex, LNCap xenograft mice, tail vein bolus
[2] = extended study, 3 weeks post administration
[3] = extended study, between 24 hours to 96 hours

O=C(O)CCOCCOCCNc1nc(Nc2ccc(CC3CN(CC(=O)O)CCN(CC(=O)O)CCN(CC(=O)O)CCN3CC(=O)O)cc2)nc(N2CCN(CCCCCCCCCCC(=O)NCCCC[C@H](NC(=O)N[C@@H](CCC(=O)O)C(=O)O)C(=O)O)CC2)n1 (stereo partly drawn) [complex (A), ^177Lu-complex of (2S)-2-(3-(1-carboxy-5-(11-(4-(4-((2-(2-(2-carboxyethoxy)ethoxy)ethyl)amino)-6-((4-((1,4,7,10-tetrakis(carboxymethyl)-1,4,7,10-tetraazacyclododecan-2-yl)methyl)phenyl)amino)-1,3,5-triazin-2-yl)piperazin-1-yl)undecanamido)pentyl)ureido)pentanedioic acid, metal not drawn]
concentration in kidneys compared with tumor (LNCaP cell xenografts): greater in kidneys than in tumor | concentration in LNCap tumor (LNCaP cell xenografts): remained unchanged | concentration in kidneys and tumor compared with other tissues (LNCaP cell xenografts; [1]): concentrate in kidneys and tumor to a greater extent than other tissues | clearance from the kidneys (LNCaP cell xenografts): rapidly cleared from the kidneys

CN(C)c1nc(Nc2ccc(CC3CN(CC(=O)O)CCN(CC(=O)O)CCN(CC(=O)O)CCN3CC(=O)O)cc2)nc(N2CCN(CCCCCCCCCCC(=O)NCCCC[C@H](NC(=O)N[C@@H](CCC(=O)O)C(=O)O)C(=O)O)CC2)n1 (stereo partly drawn) [complex (D), ^177Lu-complex of (2S)-2-(3-((1S)-1-carboxy-5-(11-(4-(4-(dimethylamino)-6-((4-((1,4,7,10-tetrakis(carboxymethyl)-1,4,7,10-tetraazacyclododecan-2-yl)methyl)phenyl)amino)-1,3,5-triazin-2-yl)piperazin-1-yl)undecanamido)pentyl)ureido)pentanedioic acid, metal not drawn]
LNCaP tumor volumes compared with volume at the start of the study (LNCaP xenografts): decrease to values lower than the tumor volume at the start of the study | tumor volumes compared with saline control group (LNCaP xenografts; measured twice weekly): significantly lower | concentration in kidneys and tumor compared with other tissues (LNCaP cell xenografts; extended biodistribution study, shorter time intervals post administration): concentrates to a greater extent in kidneys and tumor than other tissues | intracellular concentration in LNCaP tumor cells (LNCaP cell xenografts; extended study, 1 week post administration): no appreciable change | intrarenal concentration (LNCaP cell xenografts; extended study, 1 week post administration compared with within eight hours): significantly lower | decrease in tumor concentration compared with decrease in intrarenal concentration (LNCaP cell xenografts; [2]): less compared to the decrease in the intrarenal concentration | intratumoral concentration (LNCaP cell xenografts; [2]): decrease | concentration in kidney (LNCaP cell xenografts; [3]): decreases | concentration in tumor (LNCaP cell xenografts; [3]): no observable change | concentration in kidneys and tumor as a function of time (LNCaP cell xenografts; extended study, first eight hours post administration): gradual increase

O=C(O)CC[C@H](NC(=O)N[C@@H](CCCCNC(=O)CCCCCCCCCCN1CCN(c2nc(Nc3ccc(CC4CN(CC(=O)O)CCN(CC(=O)O)CCN(CC(=O)O)CCN4CC(=O)O)cc3)nc(N3CCCCC3)n2)CC1)C(=O)O)C(=O)O (stereo partly drawn) [complex (B), ^177Lu-complex of (2S)-2-(3-((1S)-1-carboxy-5-(11-(4-(4-(piperidin-1-yl)-6-((4-((1,4,7,10-tetrakis(carboxymethyl)-1,4,7,10-tetraazacyclododecan-2-yl)methyl)phenyl)amino)-1,3,5-triazin-2-yl)piperazin-1-yl)undecanamido)pentyl)ureido)pentanedioic acid, metal not drawn]
concentration in kidneys compared with tumor (LNCaP cell xenografts): greater in kidneys than in tumor | concentration in LNCap tumor (LNCaP cell xenografts): remained unchanged | concentration in kidneys and tumor compared with other tissues (LNCaP cell xenografts; [1]): concentrate in kidneys and tumor to a greater extent than other tissues | clearance from the kidneys (LNCaP cell xenografts): rapidly cleared from the kidneys

^68Ga complex of (2S)-2-(3-((1S)-1-carboxy-5-(11-(4-(4-(dimethylamino)-6-((4-((1,4,7,10-tetrakis(carboxymethyl)-1,4,7,10-tetraazacyclododecan-2-yl)methyl)phenyl)amino)-1,3,5-triazin-2-yl)piperazin-1-yl)undecanamido)pentyl)ureido)pentanedioic acid [Example 17]
tissue accumulation in radiographic image (PSMA; FIG. 6): accumulates in the lacrimal and salivary glands, kidney, liver, and urinary bladder | PSMA specific lesions in radiographic image (PSMA; imaged at 1 hour and 3 hours post administration): detected in the lymph nodes and bone, in addition to the prostate tissue itself | imaging agent visible in bladder (PSMA; visible at hour 1): cleared by the 3-hour scan

^177Lu-complex of (21S,25S)-8,15,23-trioxo-1-(4-((1,4,7,10-tetrakis(carboxymethyl)-1,4,7,10-tetraazacyclododecan-2-yl)methyl)phenylamino)-1 thioxo-2,7,16,22,24-pentaazaheptacosane-21,25,27-tricarboxylic acid [complex (C), reference compound]
concentration in kidneys compared with tumor (LNCaP cell xenografts): greater in kidneys than in tumor | concentration in LNCap tumor (LNCaP cell xenografts): decreases | concentration in kidneys and tumor compared with other tissues (LNCaP cell xenografts; [1]): concentrate in kidneys and tumor to a greater extent than other tissues

— patent publication US10201624B2, “Triazine based radiopharmaceuticals and radioimaging agents” (Molecular Insight Pharmaceuticals, Inc., priority 2013, dated 2019)
